Results on one compound are retold here after EP0236939A1, “Derivatives of 5-acyloxy-13-beta-alkyl milbemicyne against parasites in animals and plants” (CIBA-GEIGY AG, priority 1986, dated 1987).

In assay [1] the test system is L₁-Larven von Lucilia sericata. Nature of the assay: B-3 action against L1 larvae of Lucilia sericata (larval culture medium). Type of assay: in vivo. As to conditions: Lucilia sericata, 96 h, after 4 days, read-out: Wirkung (Mortalitätsrate). The protocol:
1 ml einer wässrigen Suspension der zu prüfenden Aktivsubstanz werden so mit 3 ml eines speziellen Larvenzuchtmediums bei ca. 50°C vermischt, dass ein Homogenisat von wahlweise 250 ppm oder 100 ppm Wirkstoffgehalt entsteht. In jede Reagenzglas-Probe werden ca. 30 Lucilia-Larven (L₁) eingesetzt. Nach 4 Tagen wird die Mortalitätsrate bestimmt. Verbindungen der Formel I aus den Tabellen, wie z.B. die Verbindungen Nr. 2.8, 2.17, 2.31, 2.33, 2.35, 2.43, 2.1, 2.18 und 2.45 erzielten mit 100 ppm eine Wirkung von 100 %.

Assay [2] has as its system Haemonchus concortus und Trichostrongylus colubriformis. Nature of the assay: B-5 test on sheep infected with nematodes (worm egg count in faeces). As to conditions: 0,2 mg/kg, single dose by stomach tube or intraruminal injection; compared with untreated infected sheep. Type of assay: in vivo, Schafe. The protocol:
Der Wirkstoff wird als Suspension formuliert mit einer Magensonde oder durch Injektion in den Pansen eines Schafes gegeben, das mit Haemonchus concortus und Trychostrongylus colubriformis künstlich infiziert worden ist. Pro Dosis werden 1 bis 3 Tiere verwendet. Jedes Schaf wird nur einmal mit einer einzigen Dosis behandelt, und zwar wahlweise mit 0,5 mg oder 0,2 mg/kg Körpergewicht. Die Evaluierung erfolgt durch Vergleich der Anzahl der vor und nach Behandlung im Kot der Schafe ausgeschiedenen Wurmeier.
Gleichzeitig und gleichartig infizierte aber unbehandelte Schafe dienen als Kontrolle.

For another assay, the system named is Aedes aegypti. The assay is described as follows: B-7 larvicidal action against Aedes aegypti. Type of assay: in vivo. As to conditions: 1,6 ppm; nach einem Tag. The protocol: Auf die Oberfläche von 150 ml Wasser, das sich in einem Behälter befindet, wird soviel einer 0,1 %igen acetonischen Lösung des Wirkstoffes pipettiert, dass Konzentrationen von wahlweise 10 ppm, 3,3 ppm und 1,6 ppm erhalten werden. Nach Verdunsten des Acetons wird der Behälter mit ca. 30-40 3 Tage alten Aedes-Larven beschickt. Nach 1, 2 und 5 Tagen wird die Mortalität geprüft.

A further assay relates to Dermanyssus gallinae. Nature of the assay: B-9 miticidal action against Dermanyssus gallinae. As to conditions: Dermanyssus gallinae, 72 h; 100 ppm; observed for three days; read-out: Wirkung (Mortalität). Type of assay: in vivo. The protocol: 2 bis 3 ml einer Testlösung (100, 10, 1 und 0,1 ppm Aktivsubstanz) werden in einen nach oben offenen Glasbehälter gegeben und ca. 200 Milben in unterschiedlichen Entwicklungsstadien in diesen Behälter eingesetzt. Der Glasbehälter wird mit einem Wattebausch verschlossen und 10 Minuten gleichmässig, bis zur vollständigen Benetzung der Milben geschüttelt. Danach wird der Behälter umgekehrt hingestellt, bis die überschüssige Testlösung von der Watte aufgesogen ist. Der Behälter wird erneut gekehrt und die behandelten […] zur Evaluierung der Wirksamkeit der Testsubstanzen drei Tage unter Laborbedingungen beobachtet, wobei die Mortalität als Massstab für Wirksamkeit herangezogen wird.

A further assay concerns Aphis craccivora. The assay is described as follows: B-6 contact action on Aphis craccivora (sprayed pea seedlings). Type of assay: in vivo. Conditions: Aphis craccivora, 72 h; 12,5 ppm; after 3 days; read-out: Abtötung. The source says:
Erbsenkeimlinge, die mit sämtlichen Entwicklungsstadien der Laus infiziert sind, werden mit einer aus einem Emulsionskonzentrat hergestellten Wirkstofflösung besprüht, die wahlweise 50 ppm, 25 ppm oder 12,5 ppm Wirkstoff enthält. Nach 3 Tagen wird auf mehr als 80 % tote bzw. abgefallene Blattläuse ausgewertet. Nur bei dieser Wirkungshöhe wird ein Präparat als wirksam eingestuft.

The test system of the next assay is Meloidogyne incognita. The assay is described as follows: B-8 soil-nematicidal action against Meloidogyne incognita (tomato plants, root-knot index). The assay is classed as in vivo. Conditions: 0,002 % Aktivsubstanz based on soil volume; after 4 weeks; untreated infected controls = 100 %. As to the method:
Eier von Meloidogyne incognita werden in Sand eingemischt. Dieses Gemisch wird dann in 200 ml fassende Tontöpfe eingebracht (5000 Eier pro Topf). Am gleichen Tag wird pro Topf eine 3 Wochen alte Tomatenpflanze gepflanzt und der formulierte Wirkstoff mittels Druckapplikation in die Töpfe hineingegeben (0,002 % Aktivsubstanz bezogen auf das Bodenvolumen). Die eingetopften Pflanzen werden nun bei einer Temperatur von 26±1°C und einer relativen Luftfeuchtigkeit von 60 % in einem Gewächshaus aufgestellt. Nach Ablauf von 4 Wochen erfolgt eine Evaluierung durch Untersuchung der Pflanzen auf Wurzelgallbildung nach dem sogenannten Wurzelgall-Index ("Knot Index")

Assay [3] relates to Boophilus microplus (Biarra-Stamm). Nature of the assay: B-4 acaricidal action against Boophilus microplus (injection into engorged female ticks, IR90). As to conditions: injection of 1, 0,1 or 0,01 µg per tick; dose of the result not stated. Type of assay: in vivo. As to the method:
Auf einer PVC-Platte wird waagrecht ein Klebstreifen so befestigt, das darauf 10 mit Blut vollgesogene Zecken-Weibchen von Boophilus microplus (Biarra-Stamm) nebeneinander in einer Reihe mit dem Rücken aufgeklebt werden können. Jeder Zecke wird mit einer Injektionsnadel 1 µl einer Flüssigkeit injiziert, die eine 1:1-Mischung von Polyethylenglykol und Aceton darstellt und in der eine bestimmte Wirkstoffmenge von wahlweise 1, 0,1 oder 0,01 µg pro Zecke gelöst ist. Kontrolltiere erhalten eine wirkstofffreie Injektion. Nach der Behandlung werden die Tiere unter Normalbedingungen in einem Insektarium bei ca. 28°C und 80 % relativer Luftfeuchtigkeit gehalten, bis die Eiablage erfolgt und die Larven aus den Eiern der Kontrolltiere geschlüpft sind.
Die Aktivität einer geprüften Substanz wird mit der IR₉₀ bestimmt, d.h. es wird jene Wirkstoffdosis ermittelt, bei der noch nach 30 Tagen 9 von 10 Zeckenweibchen (= 90 %) Eier ablegen, die nicht schlupffähig sind.

The next assay relates to Spodoptera littoralis. The assay is described as follows: B-1 insecticidal stomach-poison action on Spodoptera littoralis (sprayed cotton plants). Type of assay: in vivo. As to conditions: Wirkstoffkonzentration 3 ppm; nach 24 Stunden; L1 larvae on sprayed cotton plants. The protocol:
Eingetopfte Baumwollpflanzen im 5-Blatt-Stadium werden mit einer acetonisch/wässrigen Versuchslösung besprüht, die 3, 12,5 oder 50 ppm der zu prüfenden Verbindung enthält.
Nach dem Antrocknen des Belags werden die Pflanzen mit ca. 30 Larven (L₁-Stadium) von Spodoptera littoralis besetzt. Pro Versuchsverbindung und pro Test-Spezies verwendet man zwei Pflanzen. Der Versuch wird bei ca. 24°C und 60 % relativer Luftfeuchtigkeit durchgeführt. Auswertungen und Zwischenauswertungen auf moribunde Tiere, Wachstum und Larven und Frassschäden erfolgen nach 24 Stunden, 48 Stunden und 72 Stunden.

On to `CC[C@H]1O[C@]2(CC[C@@H]1C)C[C@@H]1C[C@@H](C/C=C(\C)[C@H](C)[C@@H](C)/C=C/C=C3\CO[C@@H]4[C@H](OC(=O)Cn5cncn5)C(C)=C[C@@H](C(=O)O1)[C@]34O)O2` [Verbindung 2.33, 5-O-(1,2,4-Triazol-1-yl)-acetyl-13β-methyl-milbemycin A₄], for which the mortality at 100 ppm (in assay [1]; with Dermanyssus gallinae) was 100% throughout. Moreover, the “Nematodenbefall (Reduktion der Wurmeier im Kot)” value in assay [2] is “keinen Nematodenbefall”. Also, the “Abtötung sämtlicher Larven” value with Aedes aegypti was “vollständige Abtötung”. Besides, in the assay with Aphis craccivora, the mortality at 12.5 ppm stood at 100%. For the same compound, the “Restbefall (Wurzelgallbildung)” value in the assay on Meloidogyne incognita was 0-10%. Moreover, the “Wirkung (IR₉₀)” value in assay [3] was “sehr gute Wirkung”. The Abtötung entry in the assay on Spodoptera littoralis is given as “vollständige Abtötung”.
